According to US5919761A, “Peptides for heparin and low molecular weight heparin anticoagulation reversal” (The Board of Regents of the University of Michigan, priority 1995, dated 1999):

Legend:
LMWH (LHN-1, Logiparin) [1] = test: Percent reversal of low molecular weight heparin anticoagulation, in vivo canine study, coagulation tests; set-up: species or system dogs; conditions: for aPTT reversal: Logiparin
Procedure: Anticoagulation reversal was assessed by a number of standard coagulation tests performed upon samples of venous blood: activated clotting time (ACT), heparin concentration by assay for FXa inhibitory activity (FXa), thrombin clotting time (TCT), and heparin concentration by assay for FIIa inhibitory activity (FIIa). Measurements were made 3 minutes prior to heparin reversal (baseline) and 3 minutes, 10 minutes, and 30 minutes post-administration of the heparin reversal agent. […] The coagulation data were corrected for naturally occurring metabolism.

[2] = Platelet and white blood cell count after LMWH reversal, canine study; format: in vivo; conditions: dogs, Logiparin
Procedure: In addition to the measurements reported on Table 6, studies were conducted to measure the activated partial thromboplastin time (aPTT), platelet count, and white blood cell count. […] However, the [+18B] variant produced greater aPTT reversal than protamine at the 3, 10 and 30 minute measurements (64%, 95%, and 93%, respectively, as compared to 50%, 83%, and 78%, respectively, for protamine).

LMWH (LHN-1, Logiparin) [3] = test: Percent reversal of LMWH anticoagulation, agents administered at different rates, canine study; format: in vivo, dogs
Procedure: Anticoagulation reversal was assessed by a number of standard coagulation tests performed upon samples of venous blood in the manner described hereinabove. Measurements were made 3 minutes prior to heparin reversal (baseline) and 3 minutes, 10 minutes, and 30 minutes post-administration of the heparin reversal agent.

[4] = Platelet count, leukocyte count and bleeding time after LMWH reversal at different rates, canine study; format: in vivo, dogs
Procedure: (§1) The anticoagulation-reversing agents were administered rapidly over 10 seconds to maximize hemodynamic effects or more slowly over a 3 minute interval. Changes in LMWH anticoagulation occurring from metabolism alone were determined in a separate group of dogs not given any reversal agent.

[5] = Percent change in platelet count after standard heparin reversal, cell adhesion ligand analogs, canine study; format: in vivo; conditions: dogs, agent over 10 seconds
Procedure: In addition to hemodynamic changes, Table 15 lists the percent change in platelet count following administration of n-protamine and the selected variants, as well as the factor Xa and factor IIa reversal, as a percent change at 3 minutes post administration of the compound.

LMWH (Enoxaparin) = test: Factor Xa and IIa reversal after LMWH Enoxaparin, canine study; format: in vivo; conditions: dogs, 3 min
Procedure: Similar studies were conducted to assess the ability of the protamine-like peptide analogs described in this section to reverse the anticoagulation effects of the LMWH, Enoxaparin. FIG. 5a through FIG. 5d are graphical representations of LMWH anticoagulation activities achieved by n-protamine (Protamine [+21]), and compounds [+18BE], [+18KDEL], and [+18RGD] plotted as a percent of reversal against time in minutes. […] Referring to FIG. 5c, compound [+18RGD] dramatically outperforms n-protamine in reversing the heparin antifactor Xa activity of Enoxaparin.

[6] = Percent change in platelet count after Enoxaparin reversal, canine study; format: in vivo; conditions: dogs, agent over 10 seconds
Procedure: (§2) Seven female dogs (mean weight 15-20 kg) received intravenous standard, unfractionated heparin (150 IU/kg IV) or LMWH (Enoxaparin, Rhone-Poulac, France; 100 IU/kg factor Xa activity) followed by reversal with commercial salmine protamine (n-protamine purchased from Eli Lilly, Indianapolis, Ind., 1.5 mg/kg (100 IU/mg) IV) or an anticoagulation-reversing agent which is a protamine-like peptide variant identified hereinbelow. In these studies, the anticoagulation-reversing agents were administered over a 10 second interval to maximize the hemodynamic effects.

[7] = clinical use; cited from earlier work
[8] = Hemodynamic studies and total toxicity score after LMWH reversal, canine study; conditions: dogs, Logiparin
Procedure: (§3) Hemodynamic studies were conducted by measuring mean arterial pressure (MAP) in mm Mercury, maximum percent changes in cardiac output (CO) and systemic oxygen consumption (VO2), and heart rate (HR) in beats per minute. Measurements and calculations were made at baseline, before LMWH administration, 3 minutes before reversal, every 30 seconds for 5 minutes after reversal, and at 10, 20, and 30 minutes after reversal.
Total toxicity scores (TTS) were developed that reflected maximum declines in each of four parameters (MAP, CO, VO2 and HR) over the first 5 minutes after reversal. The maximum changes occurring in an individual dog over the first 5 minutes were divided by the standard deviation derived from the entire group of tested animals and the four scores were added, resulting in a TTS for each individual dog. The TTS values for each dog were then summed to obtain an average TTS and SD for each peptide studied. The more negative the value of TTS, the more toxic the compound.

[9] = Maximum hemodynamic changes and total toxicity score after Enoxaparin reversal, canine study; conditions: dogs, agent over 10 seconds
Procedure: as §2

[10] = Hemodynamic studies and total toxicity score after LMWH reversal at different rates, canine study; conditions: dogs, Logiparin
Procedure: as §1, §3
(§4) TTS were developed that reflected maximum declines in each of four parameters (MAP, CO, VO2 and HR) over the first 5 minutes after reversal in the same manner as described hereinabove.

[11] = Hemodynamic studies and total toxicity score after standard heparin reversal at different rates, dogs
Procedure: Hemodynamic studies were conducted by measuring mean arterial pressure (MAP) in mm Mercury, maximum percent changes in cardiac output (CO) and systemic oxygen consumption (VO2), and heart rate (HR) in beats per minute. Measurements and calculations were made at baseline, before LMWH administration, 3 minutes before reversal, every 30 seconds for 5 minutes after reversal.
as §4

[12] = Maximum hemodynamic changes and total toxicity score after standard heparin reversal, cell adhesion ligand analogs, canine study; conditions: dogs, agent over 10 seconds
Procedure: In these studies, the anticoagulation-reversing agents were administered over a 10 second interval to maximize the hemodynamic effects.
Hemodynamic studies were conducted by measuring mean blood pressure (Mean BP) in mm Mercury, maximum percent changes in cardiac output (CO) and systemic oxygen consumption (VO2), and heart rate (HR) in beats per minute. Measurements and calculations were made at baseline, before administration of standard, unfractionated heparin, 3 minutes before reversal, every 30 seconds for 5 minutes after reversal.
Total toxicity scores (TTS) were developed in accordance with the method described hereinabove that reflected maximum declines in each of four parameters (MAP, CO, VO2 and HR) over the first 5 minutes after reversal.

[13] = administered over 10 sec, 3 min
[14] = administered over 10 sec, 10 min
[15] = administered over 10 sec, 30 min
[16] = administered over 3 min, 10 min
[17] = administered over 3 min, 30 min
[18] = dogs, Logiparin, administered over 3 min

Substance: PR4 S3 RPVR5 PRVSR6 G2 R4 [Protamine [+21], reference compound]
- aPTT reversal (LMWH (LHN-1, Logiparin) [1]; dogs, 3 minute measurement): 50%
- aPTT reversal (LMWH (LHN-1, Logiparin) [1]; dogs, 10 minute measurement): 83%
- aPTT reversal (LMWH (LHN-1, Logiparin) [1]; dogs, 30 minute measurement): 78%
- Percent reversal of LMWH anticoagulation, ACT (LMWH (LHN-1, Logiparin) [1]; dogs, Logiparin 150 IU/kg, agent 1.5 mg/kg IV after 30 min, 3 min post-administration, corrected for metabolism): 99%
- Percent reversal of LMWH anticoagulation, FNa (LMWH (LHN-1, Logiparin) [1]; same study, 3 min): 99%
- Percent reversal of LMWH anticoagulation, FXa (LMWH (LHN-1, Logiparin) [1]; same study, 3 min): 63%
- Percent reversal of LMWH anticoagulation, TCT (LMWH (LHN-1, Logiparin) [1]; same study, 3 min): 100%
- Percent reversal of LMWH anticoagulation, ACT (LMWH (LHN-1, Logiparin) [1]; same study, 10 min): 88%
- Percent reversal of LMWH anticoagulation, FXa (LMWH (LHN-1, Logiparin) [1]; same study, 10 min): 45%
- Percent reversal of LMWH anticoagulation, TCT (LMWH (LHN-1, Logiparin) [1]; same study, 10 min): 98%
- Percent reversal of LMWH anticoagulation, ACT (LMWH (LHN-1, Logiparin) [1]; same study, 30 min): 82%
- Percent reversal of LMWH anticoagulation, FNa (LMWH (LHN-1, Logiparin) [1]; same study, 30 min): 86%
- Percent reversal of LMWH anticoagulation, FXa (LMWH (LHN-1, Logiparin) [1]; same study, 30 min): 44%
- Percent reversal of LMWH anticoagulation, TCT (LMWH (LHN-1, Logiparin) [1]; same study, 30 min): 96%
- mean decline in platelet count [2]: -43%
- Percent reversal of LMWH anticoagulation, FNa (LMWH (LHN-1, Logiparin) [3]; [13]): 96%
- Percent reversal of LMWH anticoagulation, FXa (LMWH (LHN-1, Logiparin) [3]; [13]): 63%
- Percent reversal of LMWH anticoagulation, TCT (LMWH (LHN-1, Logiparin) [3]; [13]): 99%
- Percent reversal of LMWH anticoagulation, ACT (LMWH (LHN-1, Logiparin) [3]; [14]): 83%
- Percent reversal of LMWH anticoagulation, FXa (LMWH (LHN-1, Logiparin) [3]; [14]): 45%
- Percent reversal of LMWH anticoagulation, TCT (LMWH (LHN-1, Logiparin) [3]; [14]): 98%
- Percent reversal of LMWH anticoagulation, ACT (LMWH (LHN-1, Logiparin) [3]; [15]): 78%
- Percent reversal of LMWH anticoagulation, FNa (LMWH (LHN-1, Logiparin) [3]; [15]): 86%
- Percent reversal of LMWH anticoagulation, TCT (LMWH (LHN-1, Logiparin) [3]; [15]): 96%
- Percent reversal of LMWH anticoagulation, FNa (LMWH (LHN-1, Logiparin) [3]; administered over 3 min, 3 min): 99%
- Percent reversal of LMWH anticoagulation, FXa (LMWH (LHN-1, Logiparin) [3]; administered over 3 min, 3 min): 68%
- Percent reversal of LMWH anticoagulation, TCT (LMWH (LHN-1, Logiparin) [3]; administered over 3 min, 3 min): 100%
- Percent reversal of LMWH anticoagulation, ACT (LMWH (LHN-1, Logiparin) [3]; [16]): 87%
- Percent reversal of LMWH anticoagulation, FNa (LMWH (LHN-1, Logiparin) [3]; [16]): 98%
- Percent reversal of LMWH anticoagulation, FXa (LMWH (LHN-1, Logiparin) [3]; [16]): 53%
- Percent reversal of LMWH anticoagulation, TCT (LMWH (LHN-1, Logiparin) [3]; [16]): 99%
- Percent reversal of LMWH anticoagulation, ACT (LMWH (LHN-1, Logiparin) [3]; [17]): 80%
- Percent reversal of LMWH anticoagulation, FNa (LMWH (LHN-1, Logiparin) [3]; [17]): 92%
- Percent reversal of LMWH anticoagulation, FXa (LMWH (LHN-1, Logiparin) [3]; [17]): 45%
- Percent reversal of LMWH anticoagulation, TCT (LMWH (LHN-1, Logiparin) [3]; [17]): 98%
- Percent reversal of LMWH anticoagulation, ACT (LMWH (LHN-1, Logiparin) [3]; dogs, Logiparin, agent administered over 10 sec, 3 min post-administration): 96%
- Percent reversal of LMWH anticoagulation, ACT (LMWH (LHN-1, Logiparin) [3]; dogs, Logiparin, agent administered over 3 min, 3 min post-administration): 99%
- Maximal decline in leukocyte count ([4]; dogs, Logiparin, administered over 10 sec): -3%
- Maximal decline in leukocyte count [4, 18]: -26%
- Maximal thrombocytopenia [4, 18]: -32%
- bleeding time ([4]; selected animals, given over a 3 minute interval): ≤ 8 min
- Platelet (percent change in platelet count) [5]: -54%
- IIa Reversal (LMWH (Enoxaparin)): 98%
- Xa Reversal (LMWH (Enoxaparin)): 30%
- Platelet (percent change in platelet count) [6]: -40%
- cases with significant systemic arterial hypertension and pulmonary artery hypertension [7]: about 4%
- maximum mean increase in pulmonary artery diastolic (PAD) pressure [8]: +10 mm Mercury
- maximum mean increase in pulmonary artery systolic (PAS) pressure [8]: +10 mm Mercury
- ΔHR [8]: -18 beats per minute
- ΔMAP [8]: -32 mm Mercury
- Total Toxicity Score ([8]; first 5 minutes after reversal, 1:1 peptide to LMWH): -7.6 ± 4.8
- ΔCO ([8]; maximum percent change): -32%
- ΔVO2 ([8]; maximum percent change): -26%
- Maximum hemodynamic change, Mean BP ([9]; Enoxaparin 100 IU/kg, 5 minutes): -7 mm Mercury
- Maximum hemodynamic change, CO ([9]; Enoxaparin, 5 minutes): -23%
- Maximum hemodynamic change, HR ([9]; Enoxaparin, 5 minutes): -17 beats/min
- Maximum hemodynamic change, VO2 ([9]; Enoxaparin, 5 minutes): -23%
- Total Toxicity Score (TTS) ([9]; Enoxaparin, listed as Prot[+21]): -5.77
- Total Toxicity Score (TTS) ([9]; Enoxaparin, listed as [+21] n-protamine): -5.77 ± 3.46
- Total Toxicity Score ([10]; administered over 10 sec): -6.4 ± 3.8
- ΔCO ([10]; administered over 10 sec): -32%
- ΔHr ([10]; administered over 10 sec): -18 beats per minute
- ΔMAP ([10]; administered over 10 sec): -32 mm Mercury
- ΔVO2 ([10]; administered over 10 sec): -26%
- Total Toxicity Score ([10]; administered over 3 min): -7.2 ± 3.5
- ΔCO ([10]; administered over 3 min): -28%
- ΔHr ([10]; administered over 3 min): -36 beats per minute
- ΔMAP ([10]; administered over 3 min): -18 mm Mercury
- ΔVO2 ([10]; administered over 3 min): -23%
- Total Toxicity Score ([11]; administered over 10 sec): -7.1 ± 4.63
- Total Toxicity Score ([11]; administered over 3 min): -5.66 ± 4.04
- Maximum hemodynamic change, Mean BP ([12]; standard heparin 150 IU/kg IV, 5 minutes): -31 mm Mercury
- Maximum hemodynamic change, CO ([12]; standard heparin, 5 minutes): -36%
- Maximum hemodynamic change, HR ([12]; standard heparin, 5 minutes): -27 beats/min
- Maximum hemodynamic change, VO2 ([12]; standard heparin, 5 minutes): -32%
- Total Toxicity Score ([12]; standard unfractionated heparin): -8.02 ± 5.20
